Test [1] is described as follows: Toxicity against Lactobacillus jensenii ATCC 25258.
For test [2], the system named is Trichomonas vaginalis. Kind of test: Antitrichomonas activity against metronidazole-susceptible Trichomonas vaginalis. Format: functional.
Test [3] has as its system Spermatozoa. The experiment in a line: Spermicidal activity against human spermatozoa assessed as immobilization measured for 60 seconds. Format: functional. Further details: concentration or dose not given beside the values.
The test system of test [4] is HeLa. The experiment in a line: Cytotoxicity against human HeLa cells. The class given is cell-based.
Test [5] relates to Trichomonas vaginalis. The experiment in a line: Antitrichomonas activity against metronidazole-resistant Trichomonas vaginalis ATCC 50143. The class given is functional.
For test [6], the system named is Trichomonas vaginalis. The experiment in a line: Ratio of MIC for metronidazole to compound for metronidazole-resistant Trichomonas vaginalis ATCC 50143. The class given is functional.
The subject of test [7] is Trichomonas vaginalis. Kind of test: Ratio of MIC for metronidazole to compound for metronidazole-susceptible Trichomonas vaginalis. Format: functional.

Converted amounts (≈) assume the structure as drawn.

A word on the IC50: it is the point on the concentration scale where inhibition reaches its midpoint. In general, MIC refers to the least concentration at which growth counts as inhibited.

For the compound `Cc1ncc([N+](=O)[O-])n1CCSC(=S)N1CCC2(CC1)OCCO2`, the half-inhibitory concentration (IC50) in test [1] and in test [4] was greater than 1000 µg/mL each time. The MIC turned out to be 1.9 µM (≈ 0.708 µg/mL) in test [2] and 26.9 µM (≈ 10 µg/mL) in test [5]. The Activity in test [3] is listed as less than 100%.

Take `Cc1ncc([N+](=O)[O-])n1CCSC(=S)N1CCC(=O)CC1`: the figures for the IC50 in test [1] and in test [4] were 380 µg/mL (≈ 1160 µM) and greater than 1000 µg/mL, respectively. For the same compound, the values for the MIC in test [2] and in test [5] were 1.89 µM (≈ 0.621 µg/mL) and 30.5 µM (≈ 10 µg/mL), respectively. Moreover, the Activity in test [3] is given as less than 100%.

Turning to `CCOC(=O)C1CCN(C(=S)SCCn2c([N+](=O)[O-])cnc2C)CC1`, the concentration for half-maximal inhibition (IC50) is greater than 1000 µg/mL in test [1] and 510 µg/mL (≈ 1320 µM) in test [4]. The MIC in test [2] worked out at 3.24 µM (≈ 1.25 µg/mL); in test [5], 64.8 µM (≈ 25 µg/mL). The Activity in test [3] turned out to be 100%.

For the compound `Cc1ncc([N+](=O)[O-])n1CCSC(=S)N1CCC(Cc2ccccc2)CC1`, the IC50 in test [1] and in test [4] was greater than 1000 µg/mL each time. Also, the MIC in test [2] worked out at 12.4 µM (≈ 5.02 µg/mL); in test [5] it was 49.5 µM (≈ 20 µg/mL). Further, the Activity in test [3] is recorded as 100%.

For the compound `Cc1ncc([N+](=O)[O-])n1CCSC(=S)N1CCC(C#N)(c2ccccc2)CC1`, the half-maximal inhibitory concentration (IC50) in test [1] and in test [4] was greater than 1000 µg/mL throughout. The minimum inhibitory concentration (MIC) in test [2] was found to be 1.68 µM (≈ 0.698 µg/mL); in test [5] it was 24.1 µM (≈ 10 µg/mL). Further, the Activity in test [3] was less than 100%.

Take `Cc1ncc([N+](=O)[O-])n1CCSC(=S)N1CCC(O)CC1`: the IC50 in test [1] is 350 µg/mL (≈ 1060 µM); in test [4], 930 µg/mL (≈ 2810 µM). The results for the MIC in test [2] and in test [5] were 1.41 µM (≈ 0.466 µg/mL) and 30.3 µM (≈ 10 µg/mL), respectively. In addition, in test [3], the Activity came to 100%.

For `Cc1ncc([N+](=O)[O-])n1CCSC(=S)N1CCC(OC(=O)C(Cl)Cl)CC1`, the half-maximal inhibitory concentration (IC50) in test [1] is 740 µg/mL (≈ 1680 µM); in test [4], greater than 1000 µg/mL. Moreover, the MIC in test [2] is 1.53 µM (≈ 0.675 µg/mL); in test [5] it was 56.7 µM (≈ 25 µg/mL). Further, the Activity in test [3] is 100%.

For `Cc1ncc([N+](=O)[O-])n1CCSC(=S)N1CCC(OS(C)(=O)=O)CC1`, the half-maximal inhibitory concentration (IC50) in test [1] and in test [4] was greater than 1000 µg/mL throughout. Also, the minimum inhibitory concentration (MIC) in test [2] is 12.4 µM (≈ 5.07 µg/mL); in test [5], 61.3 µM (≈ 25 µg/mL). For the same compound, the Activity in test [3] turned out to be 100%.

As for `Cc1ncc([N+](=O)[O-])n1CCSC(=S)N1CCC(OC(=O)CCl)CC1`, the results for the IC50 in test [1] and in test [4] were 590 µg/mL (≈ 1450 µM) and 930 µg/mL (≈ 2290 µM), respectively. Besides, the MIC came out at 49.3 µM (≈ 20.1 µg/mL) in test [2] and 246 µM (≈ 100 µg/mL) in test [5]. Besides, in test [3], the Activity is 100%.

For the compound `Cc1ncc([N+](=O)[O-])n1CCSC(=S)N1CCC(OC(=O)CN2CCCCC2)CC1`, the half-maximal inhibitory concentration (IC50) was greater than 1000 µg/mL in test [1] and 760 µg/mL (≈ 1670 µM) in test [4]. The minimal inhibitory concentration (MIC) came to 1.37 µM (≈ 0.624 µg/mL) in test [2] and 54.9 µM (≈ 25 µg/mL) in test [5]. In test [3], the Activity is on record as less than 100%.

With `Cc1ncc([N+](=O)[O-])n1CCSC(=S)N1CCC(OC(=O)CN2CCOCC2)CC1`, the IC50 was greater than 1000 µg/mL in test [1] and 840 µg/mL (≈ 1840 µM) in test [4]. For the same compound, the MIC stood at 1.36 µM (≈ 0.622 µg/mL) in test [2] and 54.7 µM (≈ 25 µg/mL) in test [5]. Further, the Activity in test [3] is given as less than 100%.

Take `Cc1ncc([N+](=O)[O-])n1CCSC(=S)N1CCC(OC(=O)CSC(=S)N2CCCC2)CC1`: the 50% inhibitory concentration (IC50) in test [1] and in test [4] was greater than 1000 µg/mL each time. Moreover, the minimal inhibitory concentration (MIC) in test [2] is 2.41 µM (≈ 1.25 µg/mL); in test [5] it was 96.7 µM (≈ 50.1 µg/mL). Also, in test [3], the Activity is less than 100%.

Regarding `Cc1ncc([N+](=O)[O-])n1CCSC(=S)N1CCC(OC(=O)CSC(=S)N2CCCCC2)CC1`, the figures for the IC50 in test [1] and in test [4] were greater than 1000 µg/mL and 980 µg/mL (≈ 1840 µM), respectively. Also, the MIC in test [2] worked out at 2.35 µM (≈ 1.25 µg/mL); in test [5], 37.7 µM (≈ 20 µg/mL). Further, the Activity in test [3] is less than 100%.

As to `Cc1ncc([N+](=O)[O-])n1CCSC(=S)N1CCCCC1C` (stereo not drawn), the results for the IC50 in test [1] and in test [4] were greater than 1000 µg/mL and 170 µg/mL (≈ 518 µM), respectively. Besides, the Ratio is 10 in test [6] and 3 in test [7]. Further, the figures for the minimal inhibitory concentration (MIC) in test [2] and in test [5] were 1.9 µM (≈ 0.624 µg/mL) and 15.2 µM (≈ 4.99 µg/mL), respectively. The Activity in test [3] turned out to be 100%.

In the case of `Cc1ncc([N+](=O)[O-])n1CCSC(=S)N1CCCC(C)C1` (stereo not drawn), the IC50 in test [1] was greater than 1000 µg/mL; in test [4], 170 µg/mL (≈ 518 µM). For the same compound, the Ratio in test [6] was determined as 10; in test [7], 3. Besides, the MIC in test [2] came out at 1.9 µM (≈ 0.624 µg/mL); in test [5] it was 15.2 µM (≈ 4.99 µg/mL). Moreover, in test [3], the Activity was 100%.

Turning to `Cc1ncc([N+](=O)[O-])n1CCSC(=S)N1CCC(C)CC1`, the IC50 in test [1] was greater than 1000 µg/mL; in test [4], 190 µg/mL (≈ 578 µM). Also, the Ratio worked out at 20 in test [6] and 10 in test [7]. In addition, the MIC came out at 1.03 µM (≈ 0.338 µg/mL) in test [2] and 14.3 µM (≈ 4.7 µg/mL) in test [5]. Further, the Activity in test [3] is on record as 100%.

With `CCC1CCCCN1C(=S)SCCn1c([N+](=O)[O-])cnc1C` (stereo not drawn), the concentration for half-maximal inhibition (IC50) is greater than 1000 µg/mL in test [1] and 94 µg/mL (≈ 274 µM) in test [4]. The figures for the Ratio in test [6] and in test [7] were 10 and 3, respectively. For the same compound, the MIC was found to be 3.65 µM (≈ 1.25 µg/mL) in test [2] and 14.6 µM (≈ 5 µg/mL) in test [5]. In test [3], the Activity came out at 100%.

As to `Cc1ncc([N+](=O)[O-])n1CCSC(=S)N1C(C)CCCC1C` (stereo not drawn), the IC50 in test [1] was greater than 1000 µg/mL; in test [4], 130 µg/mL (≈ 380 µM). Besides, the Ratio in test [6] was determined as 10; in test [7], 3. Also, the values for the MIC in test [2] and in test [5] were 1.83 µM (≈ 0.627 µg/mL) and 29.2 µM (≈ 10 µg/mL), respectively. The Activity in test [3] was determined as 100%.

For `Cc1ncc([N+](=O)[O-])n1CCO` [METRONIDAZOLE], the concentration for half-maximal inhibition (IC50) in test [1] and in test [4] was greater than 1000 µg/mL in each case. The minimum inhibitory concentration (MIC) in test [2] came to 11.7 µM (≈ 2 µg/mL); in test [5] it was 292 µM (≈ 50 µg/mL). Besides, in test [3], the Activity is on record as less than 100%.

In the case of `CCCCCCCCCc1ccc(OCCOCCOCCOCCOCCOCCOCCOCCOCCO)cc1` [NONOXYNOL 9], the concentration for half-maximal inhibition (IC50) in test [1] and in test [4] was 33 µg/mL (≈ 53.5 µM) throughout. In addition, the Activity in test [3] came to 100%.

For the origin of these results see ChEMBL document CHEMBL2034943, “Potentiating Metronidazole Scaffold against Resistant Trichomonas: Design, Synthesis, Biology and 3D-QSAR Analysis” (ACS Med Chem Lett, 2012).
